Data taken from paper PMC8623273, “Novel N7-Arylmethyl Substituted Dinucleotide mRNA 5′ cap Analogs: Synthesis and Evaluation as Modulators of Translation” (Pharmaceutics, 2021).

Assays:
[1] = system: cap-dependent translation in rabbit reticulocyte lysate (RRL); test: inhibition of cap-dependent translation in rabbit reticulocyte lysate (RRL); format: biochemical; details: RRL, cap analog and mRNA added at the same time (no pre-incubation), 60 min, 30 °C; read-out: Translation Inhibition IC50
Protocol: After determining the affinity for eIF4E and susceptibility to DcpS, we evaluated the analogs as inhibitors of protein translation in rabbit reticulocyte lysates (RRL). To enable better assessment of how these two factors influenced inhibitory properties, we performed two sets of experiments. In the first set, cap analogs were added to RRL along with luciferase-encoding reporter mRNA followed by a protein activity (luminescence) readout after 1 h, whereas in the second set cap analogs were additionally preincubated in RRL for 1 h prior to addition of mRNA. Based on previously reported findings, we expected that in the second experimental setup, cap analogs susceptible to DcpS would lose their inhibitory potency, whereas compounds resistant to DcpS would remain similarly active.
The ability of the N7-benzyl cap analogues to inhibit cap-dependent translation was assayed in a rabbit reticulocyte lysate (RRL) system. Two sets of experiments were performed. In both variants, in vitro translation reactions (10 μL total volume) contained a tested cap analog (inhibitor) and an in vitro transcribed, ARCA-capped mRNA encoding Gaussia luciferase at 1 μg/mL final concentration. In experimental variant A, cap analogues at concentrations in the range of 0 to 64 μM and mRNA were added to the reaction mixture at the same time. Reactions were incubated at 30 °C for 60 min and then stopped by freezing in liquid nitrogen. In experimental variant B, the cap analogues were added at concentrations in the range of 0 to 160 μM. Reactions were pre-incubated at 30 °C for 60 min prior to addition of mRNA; after addition of mRNA incubation was continuous at 30 °C for 60 min and then stopped by freezing in liquid nitrogen. To detect luminescence from Gaussia luciferase, 50 μL of 10 ng/mL h-coelenterazine (NanoLight, Norman, OK, USA) in PBS was added to 10 μL of RRL and the luminescence was measured with a Synergy H1 (BioTek, Winooski, VT, USA) microplate reader.

[2] = target: eukaryotic translation initiation factor 4E (eIF4E) (Mus musculus, UniProt P63073); test: pyrene-probe fluorescent competitive-binding assay (PyFLINT-B) for cap analog-eIF4E; details: for effect of the N7 substituent on eIF4E binding (in words): compared to m^7GpppG / 1a or unmodified counterpart; for Kd: pyrene-based high-throughput competition assay, 30 °C, KD calculated from EC50, read-out: KD Cap-eIF4E ± SD; for EC50: Table S2
Description: High affinity for eIF4E is a desirable feature of cap analogs designed for modulating translation, either as small molecules or as a part of mRNA. Thus, we studied how different substituents at the N7-position affected eIF4E-cap interaction. To this end, we first determined the affinity of m^7GpppG and Bn^7GpppG (1a) using time-synchronized fluorescence quenching titration, a very precise and well-established, but low-throughput method. Next, to evaluate the whole set of the synthesized compounds (1a–1r), we used a high-throughput competitive-binding assay based on a pyrene-labeled fluorescent probe. From this assay we determined relative affinities of the compounds represented by half-effective concentrations (EC50) (Figure 3A–C), which were then used to calculate dissociation constant (KD) values for cap analog–eIF4E complexes using previously reported equations (Table 2, Figure 3D).
To determine the dissociation constants of the library of N7-benzylated dinucleotide 5′ cap analogs for translation initiation factor 4E, a fluorescent competitive-binding assay (PyFLINT-B) was applied as previously described. The experiments were performed on a Synergy™ H1 plate reader in 96-well, black, non-binding assay plates. Each well contained an appropriate buffer (50 mM Hepes/KOH pH 7.2, 100 mM KCl and 0.5 mM EDTA), pyrene probe m^7Gp5C4Py (10 nM), substrate (in half-logarithmic dilutions from 850 μM to 0.03 μM for compound 1m and from 100 μM to 0.003 μM for m^7GpppG and the rest of the compounds) and protein eIF4E (75 nM). The m^7Gp5C4Py was synthesized as describer earlier. The pyrene probe was dissolved in water and concentration was determined spectrometrically at 345 nm using the extinction coefficient (21,000 M^−1 cm^−1). The eIF4E protein was centrifuged after defrosting (5 min, 4 °C, 10k rcf) and its concentration was determined spectrometrically at 280 nm using the extinction coefficient (52,940 M^−1 cm^−1). The reaction mixtures were preincubated (15 min, 300 rpm, 30 °C). All measurements were performed at 30 °C and the fluorescence detection at 345 nm excitation and 378 nm emission was recorded.
To determine EC50 values, GraphPad Prism 9.1.2 software was used. To fit the curves to the obtained data we used the following formula:(1) Y=Bottom+ Top−Bottom/1+ X/EC50 where: X, cap analog (ligand) concentration; EC50, concentration of the cap analog resulting in half-maximal response from the fluorescent probe–protein complex; Bottom, minimal signal from the negative control, which contains only the free probe; Top, maximal signal from the positive control, the mixture of the protein and the fluorescent probe.
The dissociation constants KD were then calculated using the equation described by Nikolovska-Coleska et al.:(2) KD=EC50−Pt+PL50KD_probe/L50+1/L50/KD_probe+P0/KD_probe+1 where: EC50, concentration of the cap analog resulting in half-maximal response from the fluorescent probe–protein complex; [Pt], total protein concentration; [PL]50, concentration of the probe–protein complex at 50% inhibition; KD_probe, dissociation constant of the complex between the fluorescent probe and the protein; [L]50, probe concentration at 50% inhibition; [P]0, free protein concentration at 0% inhibition.

hDcpS = target: T1, hDcpS (Homo sapiens, UniProt Q96C86); format: in vitro ADME; details: 100 μM compound, 20 nM hDcpS; for hDcpS Assay: fraction of the cap remaining after 1 h incubation with DcpS: 37 °C
T1 sequence (Q96C86 1-337): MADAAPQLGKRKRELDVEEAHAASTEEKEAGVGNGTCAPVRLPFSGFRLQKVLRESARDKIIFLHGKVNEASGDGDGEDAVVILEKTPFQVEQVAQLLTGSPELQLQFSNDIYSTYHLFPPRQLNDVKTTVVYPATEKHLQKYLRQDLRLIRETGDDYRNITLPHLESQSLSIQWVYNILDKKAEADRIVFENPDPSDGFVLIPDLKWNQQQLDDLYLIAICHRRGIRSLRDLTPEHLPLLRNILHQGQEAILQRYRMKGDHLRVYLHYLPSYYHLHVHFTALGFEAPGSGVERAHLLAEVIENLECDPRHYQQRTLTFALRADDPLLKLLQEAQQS
Protocol: Susceptibility to decapping scavenger (DcpS) is one of the factors that could potentially influence the cellular stability of mono- and dinucleotide cap analogs designed as translational inhibitors. Therefore, we studied the susceptibility of arylmethyl-modified dinucleotides to DcpS. The compounds (at 100 μM concentration each) were incubated with 20 nM of hDcpS, and the hydrolysis progress at different time points was analyzed via RP HPLC and compared to m^7GpppG (Figure 4 and Figure S3).
The enzymatic activity of DcpS was assayed at 37 °C in 50 mM Tris∙HCl, pH 7.6 containing 200 mM KCl, 0.5 mM EDTA. DcpS cleavage assays were carried out with 100 μM of the tested compound and 20 nM (monomer) of the hDcpS. Enzymatic reaction progress was examined after 30, 60 and 180 min. As a control, a sample was examined before adding enzyme. Aliquots of 15 μL were terminated by heat inactivation of the enzyme for 3 min at 98 °C. The samples were analyzed via RP HPLC equipped with a Supelcosil LC-18-T column (4.6 × 250 mm, 5 μm, flow rate 1.3 mL/min).

eIF4E = eIF4E (Mus musculus, UniProt P63073); test: fluorescence anisotropy (FA) competition assay with eIF4E; format: binding; details: Table S2; for EC50: 25 °C, probe m^7GTP-triazol-FAM 10 nM, eIF4E 100 nM; for Kd: calculated from EC50
Description: The KD values determined from the high-throughput assay were in qualitative agreement with data from time-synchronized fluorescence quenching titration, justifying the use of the former for evaluation of the whole set of caps. […] To additionally verify the binding affinity data (especially for 1q and 1r, as mentioned above), we determined the binding affinities for all analogs using another independent assay, based on fluorescence anisotropy. The KD data determined by this method correlated very well with the results reported above (Table S2, Figure S2).
Fractions of the compounds were independently tested using a different method based on fluorescence anisotropy (FA). These experiments were performed on a Synergy™ H1 plate reader in 96-well, black, non-binding assay plates. Each well contained appropriate buffer (50 mM HEPES/KOH pH 7.2, 100 mM KCl, 0.5 mM EDTA i 1 mM DTT), the fluorescent probe m^7GTP-triazol-FAM (10 nM), substrate (in a 2.08-fold dilution, starting from 60 μM) and protein eIF4E (100 nM). The m^7GTP-triazol-FAM was synthesized as describer earlier. All measurements were performed at 25 °C. Determined EC50 values were means ± SD of three independent experiments. The dissociation constants KD were then calculated using the equation described by Nikolovska-Coleska as described earlier.

Chain of eukaryotic translation initiation factor 4E (eIF4E) (P63073 whole entry): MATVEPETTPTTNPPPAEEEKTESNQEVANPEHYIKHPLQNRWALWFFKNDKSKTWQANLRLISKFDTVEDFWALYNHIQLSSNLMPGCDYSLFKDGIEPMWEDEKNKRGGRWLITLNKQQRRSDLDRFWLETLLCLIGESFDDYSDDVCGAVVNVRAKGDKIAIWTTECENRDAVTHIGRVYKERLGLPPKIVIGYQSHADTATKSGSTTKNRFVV
Chain of eIF4E (P63073 whole entry): as above

Compound | IC50 [1] | effect of the N7 substituent on eIF4E binding (in words) [2] | Kd [2] | susceptibility to hDcpS (in words) (hDcpS) | hDcpS Assay: fraction of the cap remaining after 1 h incubation with DcpS (hDcpS) | EC50 [2] | EC50 (eIF4E) | Kd (eIF4E) | conversion after 1 h of incubation with hDcpS (hDcpS)
Nc1nc(O)c2c(n1)n([C@@H]1O[C@H](COP(=O)(O)OP(=O)([O-])OP(=O)(O)OC[C@H]3O[C@@H](n4cnc5c(=O)[nH]c(N)nc54)[C@H](O)[C@@H]3O)[C@@H](O)[C@H]1O)c[n+]2Cc1ccc(C(=O)O)cc1 [1m, 4-COOH-Bn^7GpppG] | > 500 µM | completely disrupted the binding | > 50000 nM | Lower susceptibility to hydrolysis | 0.93 | – | – | – | –
Nc1nc(O)c2c(n1)n([C@@H]1O[C@H](COP(=O)(O)OP(=O)([O-])OP(=O)(O)OC[C@H]3O[C@@H](n4cnc5c(=O)[nH]c(N)nc54)[C@H](O)[C@@H]3O)[C@@H](O)[C@H]1O)c[n+]2Cc1cccc2ccccc12 [1o, α-Naphm^7GpppG] | – | disrupted the binding to a similar extent as 2-methylbenzyl | 3040 ± 490 nM | lower susceptibility to hDcpS than m^7GpppG | 0.97 | 35 µM | 2100 ± 100 nM | 739 ± 49 nM | –
Nc1nc(O)c2c(n1)n([C@@H]1O[C@H](COP(=O)(O)OP(=O)([O-])OP(=O)(O)OC[C@H]3O[C@@H](n4cnc5c(=O)[nH]c(N)nc54)[C@H](O)[C@@H]3O)[C@@H](O)[C@H]1O)c[n+]2Cc1ccc(F)cc1F [1j, 2,4-di-F-Bn^7GpppG] | 8.4 ± 1.5 µM | – | 598 ± 87 nM | – | 0.70 | 6.9 µM | 870 ± 50 nM | 298 ± 18 nM | ~70%
Cc1cc(C)cc(C[n+]2cn([C@@H]3O[C@H](COP(=O)(O)OP(=O)([O-])OP(=O)(O)OC[C@H]4O[C@@H](n5cnc6c(=O)[nH]c(N)nc65)[C@H](O)[C@@H]4O)[C@@H](O)[C@H]3O)c3nc(N)nc(O)c32)c1 [1f, 3,5-di-MeBn^7GpppG] | 13.2 ± 2 µM | – | 646 ± 114 nM | Lower susceptibility to hydrolysis | 0.95 | 7.5 µM | 1100 ± 100 nM | 384 ± 41 nM | –
Cc1ccc(C[n+]2cn([C@@H]3O[C@H](COP(=O)(O)OP(=O)([O-])OP(=O)(O)OC[C@H]4O[C@@H](n5cnc6c(=O)[nH]c(N)nc65)[C@H](O)[C@@H]4O)[C@@H](O)[C@H]3O)c3nc(N)nc(O)c32)cc1 [1d, 4-MeBn^7GpppG] | 16.9 ± 3.5 µM | – | 482 ± 81 nM | almost as good a substrate as Bn^7GpppG | 0.53 | 5.6 µM | 860 ± 30 nM | 295 ± 13 nM | –
Nc1nc(O)c2c(n1)n([C@@H]1O[C@H](COP(=O)(O)OP(=O)([O-])OP(=O)(O)OC[C@H]3O[C@@H](n4cnc5c(=O)[nH]c(N)nc54)[C@H](O)[C@@H]3O)[C@@H](O)[C@H]1O)c[n+]2Cc1ccc2ccccc2c1 [1p, β-Naphm^7GpppG] | 15.9 ± 3.4 µM | disrupted the binding to a similar extent as 2-methylbenzyl | 1060 ± 190 nM | lower susceptibility to hDcpS than m^7GpppG | 0.84 | 12 ± 0.6 µM | – | – | –
Cc1ccccc1C[n+]1cn([C@@H]2O[C@H](COP(=O)(O)OP(=O)([O-])OP(=O)(O)OC[C@H]3O[C@@H](n4cnc5c(=O)[nH]c(N)nc54)[C@H](O)[C@@H]3O)[C@@H](O)[C@H]2O)c2nc(N)nc(O)c21 [1b, 2-MeBn^7GpppG] | 154 ± 88 µM | decreased the binding affinity by eight-fold | 1910 ± 360 nM | very slowly hydrolyzed | 0.88 | – | 3100 ± 100 nM | 1120 nM | –
